# From ChEMBL document CHEMBL1201862, “PubChem BioAssay data set” (2004)
#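 Tested at 5 concentrations; 48 h exposure; 96-well plates; endpoints linearly interpolated, else capped at highest concentration. GI50 = concentration required for 50% inhibition of growth.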 The source made the active and inactive calls. Cut-off read from the data, not from the text of the source: active = GI50 up to about 1.1 µM and inactive = higher.
# Columns and labels:
# Assay in all cases: NCI anticancer screen, dose series, 48 h
# SK-MEL-5 = test system: SK-MEL-5
# SK-MEL-2 = test system: SK-MEL-2
# HCC 2998 = test system: HCC 2998
# HL-60 = test system: HL-60
# DLD-1 = test system: DLD-1
# SR = test system: SR
# M14 = test system: M14
# KM12 = test system: KM12
# NCI-H226 = test system: NCI-H226
# Malme-3M = test system: Malme-3M
# NCI-H460 = test system: NCI-H460
# OVCAR-5 = test system: OVCAR-5
# OVCAR-3 = test system: OVCAR-3
# OVCAR-4 = test system: OVCAR-4
# COLO 205 = test system: COLO 205
# EKVX = test system: EKVX
# SW-620 = test system: SW-620
# MCF7 = test system: MCF7
# DU-145 = test system: DU-145
# PC-3 = test system: PC-3
SMILES,GI50 (SK-MEL-5),GI50 (SK-MEL-2),GI50 (HCC 2998),GI50 (HL-60),GI50 (DLD-1),GI50 (SR),GI50 (M14),GI50 (KM12),GI50 (NCI-H226),GI50 (Malme-3M),GI50 (NCI-H460),GI50 (OVCAR-5),GI50 (OVCAR-3),GI50 (OVCAR-4),GI50 (COLO 205),GI50 (EKVX),GI50 (SW-620),GI50 (MCF7),GI50 (DU-145),GI50 (PC-3)
O=C(O)CSc1nnc(COc2ccccc2)n1-c1ccccc1,> 100 µM (inactive),> 100 µM (inactive),> 100 µM (inactive),> 100 µM (inactive),> 100 µM (inactive),> 100 µM (inactive),> 100 µM (inactive),> 100 µM (inactive),> 100 µM (inactive),> 100 µM (inactive),> 100 µM (inactive),> 100 µM (inactive),> 100 µM (inactive),> 100 µM (inactive),> 100 µM (inactive),,,,,
C=C1C(=O)O[C@@H]2C[C@@H](C)[C@@H]3C=CC(=O)[C@@]3(C)[C@@H](OC(=O)CC(=O)O[C@H]3[C@@H]4C(=C)C(=O)O[C@@H]4C[C@@H](C)[C@@H]4C=CC(=O)[C@]43C)[C@H]12,0.0869 µM (active),0.0893 µM (active),0.146 µM (active),< 0.01 µM (active),< 0.01 µM (active),0.0103 µM (active),0.0235 µM (active),0.0478 µM (active),0.102 µM (active),0.0174 µM (active),0.161 µM (active),0.178 µM (active),0.033 µM (active),0.0468 µM (active),< 0.0148 µM (active),0.0811 µM (active),0.0129 µM (active),0.0356 µM (active),2.56 µM (inactive),0.146 µM (active)
Cc1ccc(NC(=O)CC2SC(=N)NC2=O)cc1C (stereo not given),,> 100 µM (inactive),75 µM (inactive),> 100 µM (inactive),> 100 µM (inactive),> 100 µM (inactive),> 100 µM (inactive),> 100 µM (inactive),> 100 µM (inactive),> 100 µM (inactive),> 100 µM (inactive),> 100 µM (inactive),> 100 µM (inactive),> 100 µM (inactive),> 100 µM (inactive),,> 100 µM (inactive),,,
CCOC(=O)c1oc2ccc([N+](=O)[O-])c3c2c1CCC3,69.7 µM (inactive),47.1 µM (inactive),> 87.9 µM (inactive),> 93.8 µM (inactive),> 100 µM (inactive),> 100 µM (inactive),> 86.3 µM (inactive),> 79.3 µM (inactive),> 88.7 µM (inactive),> 63.4 µM (inactive),> 100 µM (inactive),> 92 µM (inactive),> 100 µM (inactive),> 100 µM (inactive),> 85.1 µM (inactive),73.6 µM (inactive),> 90.8 µM (inactive),> 76.6 µM (inactive),> 100 µM (inactive),> 100 µM (inactive)
C[N+]1=C(c2cccnc2/C=N/O)OCC1(C)C,> 100 µM (inactive),> 100 µM (inactive),> 100 µM (inactive),> 100 µM (inactive),> 100 µM (inactive),> 100 µM (inactive),> 100 µM (inactive),> 100 µM (inactive),< 0.01 µM (active),> 100 µM (inactive),> 100 µM (inactive),> 100 µM (inactive),> 100 µM (inactive),> 100 µM (inactive),> 100 µM (inactive),> 100 µM (inactive),> 100 µM (inactive),,,
COC(CN1C(=O)c2cccc3cccc(c23)C1=O)OC,70.1 µM (inactive),1.61 µM (inactive),> 100 µM (inactive),72.9 µM (inactive),> 100 µM (inactive),40.5 µM (inactive),> 100 µM (inactive),80.4 µM (inactive),26.2 µM (inactive),> 100 µM (inactive),41.3 µM (inactive),> 100 µM (inactive),> 100 µM (inactive),> 100 µM (inactive),> 100 µM (inactive),49 µM (inactive),91.8 µM (inactive),,,
CC(=O)OCC1OC(N2C(=O)[C@@H](Oc3ccccc3)[C@H]2/C=C/c2ccccc2)C(OC(C)=O)C(OC(C)=O)C1OC(C)=O (stereo not given in full),> 100 µM (inactive),> 100 µM (inactive),> 100 µM (inactive),> 100 µM (inactive),> 100 µM (inactive),> 100 µM (inactive),> 100 µM (inactive),,> 100 µM (inactive),> 100 µM (inactive),> 100 µM (inactive),> 100 µM (inactive),> 100 µM (inactive),> 100 µM (inactive),> 100 µM (inactive),> 100 µM (inactive),> 100 µM (inactive),,,
O=C(c1ccc(Cl)cc1Cl)C1[C@H]2C(=O)N(c3ccc(Cc4ccc(N5C(=O)[C@@H]6ON(c7ccccc7)C(C(=O)c7ccc(Cl)cc7Cl)[C@@H]6C5=O)cc4)cc3)C(=O)[C@H]2ON1c1ccccc1 (stereo not given in full),> 50 µM (inactive),> 50 µM (inactive),> 50 µM (inactive),> 50 µM (inactive),> 50 µM (inactive),> 50 µM (inactive),> 50 µM (inactive),> 50 µM (inactive),> 50 µM (inactive),> 50 µM (inactive),> 50 µM (inactive),> 50 µM (inactive),> 50 µM (inactive),> 50 µM (inactive),> 50 µM (inactive),,> 50 µM (inactive),,,
CC(=O)NC(C=O)C(O[C@H](C)C(=O)NC(C)C(=O)NC(CCC(N)=O)C(=O)OCc1ccccc1)C(O)C(O)COC(=O)CCNc1c2ccccc2nc2cccc([N+](=O)[O-])c12 (stereo not given in full),> 100 µM (inactive),1.63 µM (inactive),1.54 µM (inactive),11.5 µM (inactive),3.41 µM (inactive),0.637 µM (active),1.9 µM (inactive),1.91 µM (inactive),2.6 µM (inactive),2.15 µM (inactive),1.73 µM (inactive),3.44 µM (inactive),1.85 µM (inactive),12.2 µM (inactive),1.29 µM (inactive),5.7 µM (inactive),1.99 µM (inactive),,,
COc1ccc(CCC2c3cc(OC)c(OC)cc3CCN2C)cc1OC (stereo not given),> 100 µM (inactive),> 100 µM (inactive),> 100 µM (inactive),> 100 µM (inactive),> 100 µM (inactive),> 100 µM (inactive),> 100 µM (inactive),> 100 µM (inactive),> 100 µM (inactive),> 100 µM (inactive),> 100 µM (inactive),> 100 µM (inactive),> 100 µM (inactive),> 100 µM (inactive),> 100 µM (inactive),> 100 µM (inactive),> 100 µM (inactive),,,
Sc1ncnc2nc[nH]c12 [MERCAPTOPURINE ANHYDROUS],8.36 µM (inactive),5.97 µM (inactive),3.51 µM (inactive),2.44 µM (inactive),2.08 µM (inactive),1.24 µM (inactive),0.675 µM (active),7.57 µM (inactive),58.5 µM (inactive),3.66 µM (inactive),5.53 µM (inactive),8.63 µM (inactive),0.857 µM (active),8.05 µM (inactive),4.94 µM (inactive),263 µM (inactive),6.38 µM (inactive),1.64 µM (inactive),2.51 µM (inactive),4.39 µM (inactive)
